Data reported in patent US11912682B2, “Isoindolinone compounds” (Monte Rosa Therapeutics, Inc., priority 2021, dated 2024).

Experiments:
[1] = molecular target: Full length wild-type cereblon CRBN (Homo sapiens (Human), UniProt Q96SW2); test: fluorescence polarization (FP) assay, cereblon binding; conditions: read-out: rFP IC50
How it was run: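 Full-length wild-type CRBN (80.0 nM as dispensed) preincubated 30 min at room temperature with compound in HEPES pH 8.0, NaCl, TCEP, 0.05% Tween 20.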

GSPT1 [2] = molecular target: T1, GSPT1 (Homo sapiens (Human), UniProt P15170+Q96SW2); test: immunofluorescence assay for GSPT1 degradation in CAL-51 cells (Example 4); format: cell-based
How it was run: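 CAL-51 cells on fibronectin-coated plates were treated 6 h with serial dilutions (30 μM to 0.1 nM), then fixed and immunostained for GSPT1 with DAPI and phalloidin counterstains. Per-cell mean GSPT1 intensity from high-content imaging, normalized to controls; DC50 by non-linear regression.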

GSPT1 [3] = molecular target: T1, GSPT1; test: immunofluorescence assay for GSPT1 degradation in CAL-51 cells (Example 10); format: cell-based; conditions: CAL-51 cells, 6 h; read-out: IF Class (GSPT1 degradation DC50)
Method: The representative compounds were tested in an immunofluorescence assay for their activity to degrade GSPT1. […] Compounds were stored at 10 mM DMSO stocks. […] Cells were subsequently rinsed with PBS and fixed in 10% Formalin solution (50 μl, Sigma HT5011)) for 20 mins at room temperature. […] Following three further PBS washes, 50 μL blocking buffer (1% BSA, Sigma A4503, in PBS) was added for 45 min for signal-to noise reduction. Primary antibody (human GSPT1, Sigma HPA052488) was diluted in blocking buffer (dil.1/300, 35 μL/well) and incubated with the cells overnight at 4° C. […] After three final PBS washes, samples were conserved in 100 μL PBS in the dark, until measurement. Image acquisition was performed on the Operetta High-Content Imager (Perkin-Elmer). […] For the determination of GSPT1 DC50 values, a custom algorithm implemented in the PerkinElmer image analysis software Harmony-Acapella® was developed. After user-defined setting of adjustment parameters, the analysis was run identically without human intervention for all image fields. DAPI staining of the nuclei was used to determine the location of cells using standard nuclei detection modules. Segmentation artifacts were removed by threshold-based filters for area, roundness and intensity. The outline of the cells was determined analogously from the sum of the normalized, smoothed DAPI and Actin channel, starting from each nucleus. […] GSPT1 degradation (DC50) was calculated after normalization to controls and data import in CDD vault Database, using non-linear regression.

[4] = 6 hours, read-out: Activity for GSPT1 degradation, Code (DC50)
[5] = GSPT1 degradation, read-out: DC50 value

T1 sequence (P15170 whole entry): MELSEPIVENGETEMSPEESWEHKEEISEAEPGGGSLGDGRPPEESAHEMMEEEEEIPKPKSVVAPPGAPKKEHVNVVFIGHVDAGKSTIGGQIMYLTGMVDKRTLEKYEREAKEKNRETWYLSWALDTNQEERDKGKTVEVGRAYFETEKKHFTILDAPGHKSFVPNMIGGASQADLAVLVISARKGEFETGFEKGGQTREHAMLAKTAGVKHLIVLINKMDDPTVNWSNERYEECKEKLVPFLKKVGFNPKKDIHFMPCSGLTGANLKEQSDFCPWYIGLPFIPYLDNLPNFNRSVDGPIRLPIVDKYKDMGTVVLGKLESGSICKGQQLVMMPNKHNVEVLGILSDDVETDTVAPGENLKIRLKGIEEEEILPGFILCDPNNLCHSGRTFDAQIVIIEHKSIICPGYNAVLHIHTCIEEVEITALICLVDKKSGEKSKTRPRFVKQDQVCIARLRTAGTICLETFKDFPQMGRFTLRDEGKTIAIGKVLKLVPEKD
T1 sequence (Q96SW2 whole entry): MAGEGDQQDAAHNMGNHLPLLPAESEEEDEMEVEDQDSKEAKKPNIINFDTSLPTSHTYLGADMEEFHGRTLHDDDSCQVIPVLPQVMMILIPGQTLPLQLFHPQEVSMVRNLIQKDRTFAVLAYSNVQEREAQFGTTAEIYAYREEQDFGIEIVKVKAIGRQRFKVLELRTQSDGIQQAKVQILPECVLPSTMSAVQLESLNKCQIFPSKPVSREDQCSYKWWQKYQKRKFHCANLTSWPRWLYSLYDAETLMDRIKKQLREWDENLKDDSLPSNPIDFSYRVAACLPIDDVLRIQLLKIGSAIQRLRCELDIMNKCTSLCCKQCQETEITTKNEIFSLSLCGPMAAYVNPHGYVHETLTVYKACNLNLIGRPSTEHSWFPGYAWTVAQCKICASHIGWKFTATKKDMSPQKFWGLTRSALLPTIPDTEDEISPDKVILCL
T1 sequence (Q16531 2-1140 partner): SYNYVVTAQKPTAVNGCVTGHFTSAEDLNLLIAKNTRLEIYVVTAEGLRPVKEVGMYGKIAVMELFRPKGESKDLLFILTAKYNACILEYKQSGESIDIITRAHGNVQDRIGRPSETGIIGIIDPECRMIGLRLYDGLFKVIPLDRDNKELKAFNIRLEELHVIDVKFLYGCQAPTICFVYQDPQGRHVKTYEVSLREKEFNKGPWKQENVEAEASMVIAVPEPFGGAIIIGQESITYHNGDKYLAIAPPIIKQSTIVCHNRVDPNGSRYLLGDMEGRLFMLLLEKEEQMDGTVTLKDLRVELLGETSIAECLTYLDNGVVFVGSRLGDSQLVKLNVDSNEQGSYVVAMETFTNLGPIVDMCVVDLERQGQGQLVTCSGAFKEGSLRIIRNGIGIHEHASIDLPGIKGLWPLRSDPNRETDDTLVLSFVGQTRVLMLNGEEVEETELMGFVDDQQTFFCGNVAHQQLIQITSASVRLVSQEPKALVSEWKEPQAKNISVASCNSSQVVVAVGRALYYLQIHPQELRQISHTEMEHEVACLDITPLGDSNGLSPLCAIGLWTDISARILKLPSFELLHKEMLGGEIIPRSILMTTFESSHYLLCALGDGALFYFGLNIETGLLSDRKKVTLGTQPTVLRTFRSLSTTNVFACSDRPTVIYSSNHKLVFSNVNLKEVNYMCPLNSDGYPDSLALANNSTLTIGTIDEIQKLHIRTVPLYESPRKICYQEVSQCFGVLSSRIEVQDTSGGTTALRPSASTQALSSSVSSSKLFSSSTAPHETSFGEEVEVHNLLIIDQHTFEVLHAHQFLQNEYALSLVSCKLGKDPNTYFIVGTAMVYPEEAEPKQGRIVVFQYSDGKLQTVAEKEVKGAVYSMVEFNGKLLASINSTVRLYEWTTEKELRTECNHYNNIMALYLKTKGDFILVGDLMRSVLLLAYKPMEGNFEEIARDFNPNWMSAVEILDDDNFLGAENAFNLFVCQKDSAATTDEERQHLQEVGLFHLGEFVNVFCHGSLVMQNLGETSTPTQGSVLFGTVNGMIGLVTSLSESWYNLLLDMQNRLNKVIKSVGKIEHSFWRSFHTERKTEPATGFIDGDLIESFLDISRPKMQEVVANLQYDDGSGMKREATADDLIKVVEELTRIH
Full length wild-type cereblon CRBN, sequence (Q96SW2 whole entry): as the sequence (Q96SW2 whole entry) above

IC50 [1] [nM]	DC50 (GSPT1 [2]; [4]) [nM]	DC50 (GSPT1 [2]; [5]) [nM]	DC50 (GSPT1 [3]) [nM]	SMILES
< 500	30 to 300	–	–	N#Cc1cc(Cl)cc(NC(=O)OCc2ccc3c(c2)C(=O)N(C2CCC(=O)NC2=O)C3)c1 (stereo not shown) [Compound 111, (2-(2,6-dioxopiperidin-3-yl)-3-oxoisoindolin-5-yl)methyl (3-chloro-5-cyanophenyl)carbamate]
< 500	30 to 300	–	–	Cc1cc(C#N)cc(NC(=O)OCc2ccc3c(c2)C(=O)N(C2CCC(=O)NC2=O)C3)c1 (stereo not shown) [Compound 112, (2-(2,6-dioxopiperidin-3-yl)-3-oxoisoindolin-5-yl)methyl (3-cyano-5-methylphenyl)carbamate]
> 1700	30 to 300	–	–	Cc1c(F)cc(NC(=O)OCc2ccc3c(c2)C(=O)N(C2CCC(=O)NC2=O)C3)cc1Cl (stereo not shown) [Compound 116]
> 1700	> 300	–	–	CC(OC(=O)Nc1cccc(OC(F)(F)F)c1)c1ccc2c(c1)C(=O)N(C1CCC(=O)NC1=O)C2 (stereo not shown) [Compound 121, 1-(2-(2,6-dioxopiperidin-3-yl)-3-oxoisoindolin-5-yl)ethyl(3-(trifluoromethoxy)phenyl)carbamate]
< 500	30 to 300	–	–	Cc1cc(C)c(F)c(NC(=O)OCc2ccc3c(c2)C(=O)N(C2CCC(=O)NC2=O)C3)c1 (stereo not shown) [Compound 122, (2-(2,6-dioxopiperidin-3-yl)-3-oxoisoindolin-5-yl)methyl (2-fluoro-3,5-dimethylphenyl)carbamate]
< 500	30 to 300	–	–	Cc1cc(NC(=O)OCc2ccc3c(c2)C(=O)N(C2CCC(=O)NC2=O)C3)cc(C)c1F (stereo not shown) [Compound 124, (2-(2,6-dioxopiperidin-3-yl)-3-oxoisoindolin-5-yl)methyl (4-fluoro-3,5-dimethylphenyl)carbamate]
< 500	< 30	≤ 30	–	O=C1CCC(N2Cc3ccc(COC(=O)NC45CC(c6ccccc6)(C4)C5)cc3C2=O)C(=O)N1 (stereo not shown) [Compound 126, (2-(2,6-dioxopiperidin-3-yl)-3-oxoisoindolin-5-yl)methyl (3-phenylbicyclo[1.1.1]pentan-1-yl carbamate]
< 500	< 30	≤ 30	–	O=C1CCC(N2Cc3ccc(COC(=O)Nc4ccc(-c5ccccn5)cc4F)cc3C2=O)C(=O)N1 (stereo not shown) [Compound 135, (2-(2,6-dioxopiperidin-3-yl)-3-oxoisoindolin-5-yl)methyl (2-fluoro-4-(pyridin-2-yl)phenyl)carbamate]
> 1700	30 to 300	–	–	O=C1CCC(N2Cc3ccc(COC(=O)Nc4ccc(-c5ccccc5)c(F)c4)cc3C2=O)C(=O)N1 (stereo not shown) [Compound 136, (2-(2,6-dioxopiperidin-3-yl)-3-oxoisoindolin-5-yl)methyl (2-fluoro-[1,1′-biphenyl]-4-yl) carbamate]
> 1700	30 to 300	–	–	O=C1CCC(N2Cc3ccc(COC(=O)Nc4ccc(-c5ccccc5)cn4)cc3C2=O)C(=O)N1 (stereo not shown) [Compound 143, (2-(2,6-dioxopiperidin-3-yl)-3-oxoisoindolin-5-yl)methyl (5-phenylpyridin-2-yl)carbamate]
< 500	< 30	≤ 30	–	CC1(c2ccc(NC(=O)OCc3ccc4c(c3)C(=O)N(C3CCC(=O)NC3=O)C4)cn2)CC1 (stereo not shown) [Compound 152, (2-(2,6-dioxopiperidin-3-yl)-3-oxoisoindolin-5-yl)methyl (6-(1-methylcyclopropyl)pyridin-3-yl)carbamate]
> 1700	30 to 300	–	–	O=C1CCC(N2Cc3ccc(COC(=O)Nc4ccc(OC(F)(F)F)cc4)cc3C2=O)C(=O)N1 (stereo not shown) [Compound 154, (2-(2,6-dioxopiperidin-3-yl)-3-oxoisoindolin-5-yl)methyl (4-(trifluoromethoxy)phenyl)carbamate]
> 1700	30 to 300	–	–	O=C1CCC(N2Cc3ccc(COC(=O)Nc4cc(-c5ccccc5)ccn4)cc3C2=O)C(=O)N1 (stereo not shown) [Compound 155, (2-(2,6-dioxopiperidin-3-yl)-3-oxoisoindolin-5-yl)methyl (4-phenylpyridin-2-yl)carbamate]
< 500	< 30	≤ 30	–	C[C@H]1CCCN1c1ccc(NC(=O)OCc2ccc3c(c2)C(=O)N(C2CCC(=O)NC2=O)C3)cn1 (stereo partly drawn) [Compound 156, (2-(2,6-dioxopiperidin-3-yl)-3-oxoisoindolin-5-yl)methyl (6-((S)-2-methylpyrrolidin-1-yl)pyridin-3-yl)carbamate]
< 500	< 30	≤ 30	–	C[C@@H]1CCCN1c1ccc(NC(=O)OCc2ccc3c(c2)C(=O)N(C2CCC(=O)NC2=O)C3)cn1 (stereo partly shown) [Compound 157]
–	–	–	> 300	O=C1CCC(N2Cc3ccc(COC(=O)Nc4cc(Cl)ccc4F)cc3C2=O)C(=O)N1 (stereo not shown) [Compound 163, (2-(2,6-dioxopiperidin-3-yl)-3-oxoisoindolin-5-yl)methyl (5-chloro-2-fluorophenyl)carbamate]
–	–	–	> 300	O=C1CCC(N2Cc3ccc(COC(=O)Nc4ccc(C5CCC5)cc4F)cc3C2=O)C(=O)N1 (stereo not shown) [Compound 164, (2-(2,6-dioxopiperidin-3-yl)-3-oxoisoindolin-5-yl)methyl (4-cyclobutyl-2-fluorophenyl)carbamate]
–	–	–	> 300	Cc1cc(F)c(NC(=O)OCc2ccc3c(c2)C(=O)N(C2CCC(=O)NC2=O)C3)c(F)c1 (stereo not shown) [Compound 166, (2-(2,6-dioxopiperidin-3-yl)-3-oxoisoindolin-5-yl)methyl (2,6-difluoro-4-methylphenyl)carbamate]
–	–	–	30 to 300	CC(C)(C)c1cccc(NC(=O)OCc2ccc3c(c2)C(=O)N(C2CCC(=O)NC2=O)C3)n1 (stereo not shown) [Compound 170, (2-(2,6-dioxopiperidin-3-yl)-3-oxoisoindolin-5-yl)methyl (6-(tert-butyl)pyridin-2-yl)carbamate]
–	–	–	< 30	O=C1CCC(N2Cc3ccc(COC(=O)NC45CC(c6ccccc6F)(C4)C5)cc3C2=O)C(=O)N1 (stereo not shown) [Compound 174, (2-(2,6-dioxopiperidin-3-yl)-3-oxoisoindolin-5-yl)methyl (3-(2-fluorophenyl)bicyclo[1.1.1]pentan-1-yl) carbamate]

SMILES	IC50 [1] [nM]	DC50 (GSPT1 [2]; [4]) [nM]	DC50 (GSPT1 [2]; [5]) [nM]	DC50 (GSPT1 [3]) [nM]
O=C1CCC(N2Cc3ccc(COC(=O)Nc4ccc5c(c4)CC(F)(F)O5)cc3C2=O)C(=O)N1 (stereo not shown) [Compound 113]	< 500	30 to 300	–	–
CC(C)(C)c1cc(NC(=O)OCc2ccc3c(c2)C(=O)N(C2CCC(=O)NC2=O)C3)ccn1 (stereo not shown) [Compound 114]	< 500	< 30	–	–
O=C1CCC(N2Cc3ccc(COC(=O)Nc4cc(OC(F)(F)F)ccc4Cl)cc3C2=O)C(=O)N1 (stereo not shown) [Compound 125, (2-(2,6-dioxopiperidin-3-yl)-3-oxoisoindolin-5-yl)methyl(2-chloro-5-(trifluoromethoxy)phenyl)carbamate]	> 1700	> 300	–	–
Cc1ccc(NC(=O)OCc2ccc3c(c2)C(=O)N(C2CCC(=O)NC2=O)C3)cc1C (stereo not shown) [Compound 129]	< 500	30 to 300	–	–
O=C1CCC(N2Cc3ccc(COC(=O)Nc4cc(F)c(-c5ccccc5)c(F)c4)cc3C2=O)C(=O)N1 (stereo not shown) [Compound 134, (2-(2,6-dioxopiperidin-3-yl)-3-oxoisoindolin-5-yl)methyl(2,6-difluoro-[1,1′-biphenyl]-4-yl)carbamate]	> 1700	30 to 300	–	–
Cc1cc(NC(=O)OCc2ccc3c(c2)C(=O)N(C2CCC(=O)NC2=O)C3)ccc1-c1ccccc1 (stereo not shown) [Compound 137, (2-(2,6-dioxopiperidin-3-yl)-3-oxoisoindolin-5-yl)methyl(2-methyl-[1,1′-biphenyl]-4-yl)carbamate]	> 1700	< 30	≤ 30	–
O=C1CCC(N2Cc3ccc(COC(=O)Nc4ccc(OC(F)(F)F)cc4F)cc3C2=O)C(=O)N1 (stereo not shown) [Compound 148, (2-(2,6-dioxopiperidin-3-yl)-3-oxoisoindolin-5-yl)methyl(2-fluoro-4-(trifluoromethoxy)phenyl)carbamate]	> 1700	> 300	–	–
O=C1CCC(N2Cc3ccc(COC(=O)Nc4ccnc(-c5ccccc5)c4)cc3C2=O)C(=O)N1 (stereo not shown) [Compound 149]	< 500	> 300	–	–
O=C1CCC(N2Cc3ccc(COC(=O)NC4CN(c5ccccc5)C4)cc3C2=O)C(=O)N1 (stereo not shown) [Compound 167]	–	–	–	> 300
O=C1CCC(N2Cc3ccc(COC(=O)NC4CN(Cc5ccccc5)C4)cc3C2=O)C(=O)N1 (stereo not shown) [Compound 168]	–	–	–	> 300
O=C1CCC(N2Cc3ccc(COC(=O)Nc4cccc(OC(F)(F)F)c4F)cc3C2=O)C(=O)N1 (stereo not shown) [Compound 169]	–	–	–	30 to 300
O=C1CCC(N2Cc3ccc(COC(=O)Nc4cccc5c4OCC5)cc3C2=O)C(=O)N1 (stereo not shown) [Compound 173]	–	–	–	> 300
